# Laboratory results published in article PMC5657837 (Journal of Insect Science, 2014).
# Tested on: midgut α-amylase
# Experiment: α-amylase activity of larval midgut homogenate
# Type: biochemical, Mythimna separata
structure (smiles),measurement,value
"O=C1CCC(=O)N1Br [NBS, N-bromosuccinimide]",Ki,2530 nM
